According to patent US20230399311A1, “POLYMORPHS OF SUBSTITUTED ISOQUINOLINE-BASED RHO KINASE INHIBITORS” (BioAxone BioSciences, Inc., priority 2022, published 2023):
Converted amounts (≈) assume the structure as drawn. “And” between values parts separate entries of the source, which are not always exact repeats. Equal values may be shown once. Read-outs that look alike come from different tables or passages of the source. Each block holds one molecule with its values, some of them ahead of it.

Experiments:
[1] = Solubility of Form A in various solvents at 25° C. and 50° C.; type: physicochemical; conditions: thermodynamic from solid
Protocol: The solubility of Form A of Compound 1 was evaluated at 25° C. and 50° C. in various solvents.

[2] = pKa by iterative titration with 1M sodium hydroxide; type: physicochemical; conditions: free base form; for pKa: Measurements #1-#3
Protocol: The pKa of NRL-1049 in free base form was measured in triplicate by iterative titration with 1M sodium hydroxide solution. A plot of the pH versus the volume of the titrant was used to calculate the pKa, wherein the pKa was taken as 50% of the inflection point.

- solubility ([1]; 1,4-dioxane, 25 °C, organic solvent or mixture, read-out: Solubility at 25° C.): 1500 µg/mL (≈ 4.7 mM)
- solubility ([1]; 1,4-dioxane, 50 °C, organic solvent or mixture, read-out: Solubility at 50° C.): 11900 µg/mL (≈ 37.3 mM)
- solubility ([1]; 2-methoxyethanol, 25 °C, organic solvent or mixture, read-out: Solubility at 25° C.): > 50000 µg/mL
- solubility ([1]; 2-methoxyethanol, 50 °C, organic solvent or mixture, read-out: Solubility at 50° C.): > 50000 µg/mL
- solubility ([1]; acetone, 25 °C, organic solvent or mixture, read-out: Solubility at 25° C.): 15900 µg/mL (≈ 49.8 mM)
- solubility ([1]; acetone, 50 °C, organic solvent or mixture, read-out: Solubility at 50° C.): 45300 µg/mL (≈ 142 mM)
- solubility ([1]; acetonitrile, 25 °C, organic solvent or mixture, read-out: Solubility at 25° C.): < 1000 µg/mL
- solubility ([1]; acetonitrile, 50 °C, organic solvent or mixture, read-out: Solubility at 50° C.): < 1000 µg/mL
- solubility ([1]; benzyl alcohol, 25 °C, organic solvent or mixture, read-out: Solubility at 25° C.): 156000 µg/mL (≈ 488 mM)
- solubility ([1]; chloroform, 25 °C, organic solvent or mixture, read-out: Solubility at 25° C.): > 50000 µg/mL
- solubility ([1]; chloroform, 50 °C, organic solvent or mixture, read-out: Solubility at 50° C.): > 50000 µg/mL
- solubility ([1]; dichloromethane, 25 °C, organic solvent or mixture, read-out: Solubility at 25° C.): < 1000 µg/mL
- solubility ([1]; dichloromethane, 50 °C, organic solvent or mixture, read-out: Solubility at 50° C.): < 1000 µg/mL
- solubility ([1]; dimethyl sulfoxide, 25 °C, organic solvent or mixture, read-out: Solubility at 25° C.): > 50000 µg/mL
- solubility ([1]; dimethyl sulfoxide, 50 °C, organic solvent or mixture, read-out: Solubility at 50° C.): > 50000 µg/mL
- solubility ([1]; dimethylformamide, 25 °C, organic solvent or mixture, read-out: Solubility at 25° C.): 39300 µg/mL (≈ 123 mM)
- solubility ([1]; dimethylformamide, 50 °C, organic solvent or mixture, read-out: Solubility at 50° C.): > 50000 µg/mL
- solubility ([1]; ethanol, 25 °C, organic solvent or mixture, read-out: Solubility at 25° C.): 12300 µg/mL (≈ 38.5 mM)
- solubility ([1]; ethanol, 50 °C, organic solvent or mixture, read-out: Solubility at 50° C.): 25300 µg/mL (≈ 79.2 mM)
- solubility ([1]; ethyl acetate, 25 °C, organic solvent or mixture, read-out: Solubility at 25° C.): < 1000 µg/mL
- solubility ([1]; ethyl acetate, 50 °C, organic solvent or mixture, read-out: Solubility at 50° C.): < 1000 µg/mL
- solubility ([1]; ethyl formate, 25 °C, organic solvent or mixture, read-out: Solubility at 25° C.): 13700 µg/mL (≈ 42.9 mM)
- solubility ([1]; ethyl formate, 50 °C, organic solvent or mixture, read-out: Solubility at 50° C.): > 50000 µg/mL
- solubility ([1]; iso-butyl acetate, 25 °C, organic solvent or mixture, read-out: Solubility at 25° C.): < 1000 µg/mL
- solubility ([1]; iso-butyl acetate, 50 °C, organic solvent or mixture, read-out: Solubility at 50° C.): < 1000 µg/mL
- solubility ([1]; iso-propanol, 25 °C, organic solvent or mixture, read-out: Solubility at 25° C.): 500 µg/mL (≈ 1.57 mM)
- solubility ([1]; iso-propanol, 50 °C, organic solvent or mixture, read-out: Solubility at 50° C.): 14700 µg/mL (≈ 46 mM)
- solubility ([1]; iso-propyl acetate, 25 °C, organic solvent or mixture, read-out: Solubility at 25° C.): < 1000 µg/mL
- solubility ([1]; iso-propyl acetate, 50 °C, organic solvent or mixture, read-out: Solubility at 50° C.): < 1000 µg/mL
- solubility ([1]; medium chain triglyceride, 25 °C, oil or lipid, read-out: Solubility at 25° C.): 100 µg/mL (≈ 0.313 mM)
- solubility ([1]; methanol, 25 °C, organic solvent or mixture, read-out: Solubility at 25° C.): > 50000 µg/mL
- solubility ([1]; methanol, 50 °C, organic solvent or mixture, read-out: Solubility at 50° C.): > 50000 µg/mL
- solubility ([1]; methyl ethyl ketone, 25 °C, organic solvent or mixture, read-out: Solubility at 25° C.): < 1000 µg/mL
- solubility ([1]; methyl ethyl ketone, 50 °C, organic solvent or mixture, read-out: Solubility at 50° C.): 1500 µg/mL (≈ 4.7 mM)
- solubility ([1]; methyl iso-butyl ketone, 25 °C, organic solvent or mixture, read-out: Solubility at 25° C.): < 1000 µg/mL
- solubility ([1]; methyl iso-butyl ketone, 50 °C, organic solvent or mixture, read-out: Solubility at 50° C.): < 1000 µg/mL
- solubility ([1]; n-butyl alcohol, 25 °C, organic solvent or mixture, read-out: Solubility at 25° C.): 1600 µg/mL (≈ 5.01 mM)
- solubility ([1]; n-butyl alcohol, 50 °C, organic solvent or mixture, read-out: Solubility at 50° C.): 7500 µg/mL (≈ 23.5 mM)
- solubility ([1]; n-propanol, 25 °C, organic solvent or mixture, read-out: Solubility at 25° C.): 1600 µg/mL (≈ 5.01 mM)
- solubility ([1]; n-propanol, 50 °C, organic solvent or mixture, read-out: Solubility at 50° C.): 23400 µg/mL (≈ 73.3 mM)
- solubility ([1]; o-xylene, 25 °C, organic solvent or mixture, read-out: Solubility at 25° C.): < 1000 µg/mL
- solubility ([1]; o-xylene, 50 °C, organic solvent or mixture, read-out: Solubility at 50° C.): < 1000 µg/mL
- solubility ([1]; polyethylene glycol 300, 25 °C, organic solvent or mixture, read-out: Solubility at 25° C.): 11000 µg/mL (≈ 34.4 mM)
- solubility ([1]; propylene glycol, 25 °C, organic solvent or mixture, read-out: Solubility at 25° C.): 84000 µg/mL (≈ 263 mM)
- solubility ([1]; sesame oil, 25 °C, oil or lipid, read-out: Solubility at 25° C.): 40 µg/mL (≈ 0.125 mM)
- solubility ([1]; tert-butyl methyl ether, 25 °C, organic solvent or mixture, read-out: Solubility at 25° C.): < 1000 µg/mL
- solubility ([1]; tert-butyl methyl ether, 50 °C, organic solvent or mixture, read-out: Solubility at 50° C.): < 1000 µg/mL
- solubility ([1]; tetrahydrofuran, 25 °C, organic solvent or mixture, read-out: Solubility at 25° C.): 1600 µg/mL (≈ 5.01 mM)
- solubility ([1]; tetrahydrofuran, 50 °C, organic solvent or mixture, read-out: Solubility at 50° C.): 2000 µg/mL (≈ 6.26 mM)
- solubility ([1]; toluene, 25 °C, organic solvent or mixture, read-out: Solubility at 25° C.): < 1000 µg/mL
- solubility ([1]; toluene, 50 °C, organic solvent or mixture, read-out: Solubility at 50° C.): < 1000 µg/mL
- solubility ([1]; water, 25 °C, water, read-out: Solubility at 25° C.): > 50000 µg/mL
- solubility ([1]; water, 50 °C, water, read-out: Solubility at 50° C.): > 50000 µg/mL
Compound: C[C@@H](N)C1CCN(S(=O)(=O)c2cccc3cnccc23)CC1 [NRL-1049 (R), (R)-1-(1-(isoquinolin-5-ylsulfonyl)piperidin-4-yl)ethan-1-amine]

- pKa average ([2]; Sample 1): 1.8
- pKa ([2]; Sample 1): 1.73 and 1.81 and 1.83
- pKa average ([2]; Sample 2): 2.0
- pKa average ([2]; Sample 3): 1.9
- pKa ([2]; Sample 3): 1.89 and 1.87 and 1.98
Compound: CC(N)C1CCN(S(=O)(=O)c2cccc3cnccc23)CC1 (stereo not shown) [NRL-1049]
